Values belong to the compound of their own block, whether it stands above or below them.
Experiments:
[1] = tested on: OTC5 (DNA, aptamer) GACGACATTCCGTTGATCTCTCCCTTTTGGGTTGGTGTCGTC; assay: intrinsic fluorescence enhancement titration; conditions: 50 mM NaCl, 2 mM MgCl2, 10 mM Tris HCl pH 8.3, binding lost without Mg2+
[2] = tested on: OTC5 (DNA, aptamer) GACGACATTCCGTTGATCTCTCCCTTTTGGGTTGGTGTCGTC; assay: ITC; conditions: 2 mM Mg2+; 10 mM Tris pH 8.3; 0.2 μM at pH 6.0 (10 mM MES)

- KD ([1]; 0.36 µM at acidic pH (printed 6.3)): 160 nM
SMILES: CN(C)[C@@H]1C(=O)C(C(N)=O)=C(O)[C@@]2(O)C(=O)C3=C(O)c4c(O)cccc4[C@@](C)(O)[C@H]3C[C@@H]12

- KD [2]: 30 nM
- KD ([1]; 0.14 µM at acidic pH (printed 6.3)): 60 nM
SMILES: CN(C)[C@@H]1C(=O)C(C(N)=O)=C(O)[C@@]2(O)C(=O)C3=C(O)c4c(O)cccc4[C@@](C)(O)[C@H]3[C@H](O)[C@@H]12

- KD ([1]; 0.39 µM at pH 6.0): 240 nM
SMILES: C[C@H]1c2cccc(O)c2C(=O)C2=C(O)[C@]3(O)C(=O)C(C(N)=O)=C(O)[C@@H](N(C)C)[C@@H]3[C@@H](O)[C@@H]21

Reference: paper PMC9496453 (2022)
